Measurements as given in US7265148B2, “Substituted pyrrole-indoles” (Wyeth, priority 2003, dated 2007).

Legend:
[1] = target: T1, recombinant human plasminogen activator inhibitor-1 (PAI-1) (Homo sapiens, UniProt P05121); test: Primary screen for the PAI-1 inhibition (chromogenic tPA activity); type: biochemical; conditions: pH 6.6; for inhibition at 10 µM: 10 μM test compound; for inhibition at 25 µM: 25 μM test compound
T1 construct: purchased Molecular Innovations, Royal Oak, Mich
Method: Test compounds are dissolved in DMSO at a final concentration of 10 mM, then diluted 100× in physiologic buffer. The inhibitory assay is initiated by the addition of the test compound (1-100 μM final concentration, maximun DMSO concentration of 0.2%) in a pH 6.6 buffer containing 140 nM recombinant human plasminogen activator inhibitor-1 (PAI-1; Molecular Innovations, Royal Oak, Mich.). Following a 1 hour incubation at room temperature, 70 nM of recombinant human tissue plasminogen activator (tPA) is added, and the combination of the test compound, PAI-1 and tPA is incubated for an additional 30 minutes. Following the second incubation, Spectrozyme-tPA (American Diagnostica, Greenwich, Conn.), a chromogenic substrate for tPA, is added and absorbance read at 405 nm at 0 and 60 minutes. Relative PAI-1 inhibition is equal to the residual tPA activity in the presence of the test compound and PAI-1. Control treatments include the complete inhibition of tPA by PAI-1 at the molar ratio employed (2:1), and the absence of any effect of the test compound on tPA alone.

human PAI-1 = human PAI-1 (Homo sapiens, UniProt P05121); test: Assay for determining IC50 of inhibition of PAI-1 (tPA-coated plate, antibody detection); type: binding; conditions: active PAI-1 bound to tPA-coated plate; pH 7.5
Method: This assay is based upon the non-SDS dissociable interaction between tPA and active PAI-1. Assay plates are initially coated with human tPA (10 μg/ml). Test compounds of the present invention are dissolved in DMSO at 10 mM, then diluted with physiologic buffer (pH 7.5) to a final concentration of 1-50 μM. Test compounds are incubated with human PAI-1 (50 ng/ml) for 15 minutes at room temperature. The tPA-coated plate is washed with a solution of 0.05% Tween 20 and 0.1% BSA, then the plate is blocked with a solution of 3% BSA. An aliquot of the substituted pyrrole-indole/PAI-1 solution is then added to the tPA-coated plate, incubated at room temperature for 1 hour, and washed. Active PAL-1 bound to the plate is assessed by adding an aliquot of a 1:1000 dilution of the 33B8 monoclonal antibody against human PAI-1, and incubating the plate at room temperature for 1 hour (Molecular Innovations, Royal Oak, Mich.). […] The plate is incubated 45 minutes at room temperature, and color development is determined at OD405 nm. The quantitation of active PAI-1 bound to tPA at varying concentrations of the test compound is used to determine the IC50. Results are analyzed using a logarithmic best-fit equation. The assay sensitivity is 5 ng/ml of human PAI-1 as determined from a standard curve ranging from 0-100 ng/ml.

T1 sequence (P05121 24-402): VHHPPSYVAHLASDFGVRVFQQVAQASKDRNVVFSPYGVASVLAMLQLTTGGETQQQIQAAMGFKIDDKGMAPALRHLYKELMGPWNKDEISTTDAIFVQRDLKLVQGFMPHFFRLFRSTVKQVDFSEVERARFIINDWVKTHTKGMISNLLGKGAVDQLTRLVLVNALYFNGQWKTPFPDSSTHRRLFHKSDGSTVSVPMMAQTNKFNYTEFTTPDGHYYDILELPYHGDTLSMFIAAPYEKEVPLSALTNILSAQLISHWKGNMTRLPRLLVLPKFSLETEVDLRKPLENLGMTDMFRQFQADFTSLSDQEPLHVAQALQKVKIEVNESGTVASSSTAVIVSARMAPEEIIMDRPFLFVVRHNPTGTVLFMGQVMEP
Chain of human PAI-1 (P05121 24-402): as above

Compound: O=C(O)c1c(-c2ccccc2)c2cc(-n3cccc3)ccc2n1Cc1ccccc1 [Example 1, 1-benzyl-3-phenyl-5-(1H-pyrrol-1-yl)-1H-indole-2-carboxylic acid]
- inhibition at 10 µM [1]: 12%
- inhibition at 25 µM [1]: 69%

Compound: Cn1c(C(=O)N[C@@H](Cc2ccccc2)C(=O)O)c(-c2ccccc2)c2cc(-n3cccc3)ccc21 [Example 2, N-{[1-methyl-3-phenyl-5-(1H-pyrrol-1-yl)-1H-indol-2-yl]carbonyl}-L-phenylalanine]
- inhibition at 10 µM [1]: 4%
- inhibition at 25 µM [1]: 61%

Compound: O=C(N[C@@H](Cc1ccccc1)C(=O)O)c1c(-c2ccccc2)c2cc(-n3cccc3)ccc2n1Cc1ccccc1 [Example 3, N-{[1-benzyl-3-phenyl-5-(1H-pyrrol-1-yl)-1H-indol-2-yl]carbonyl}-L-phenylalanine]
- inhibition at 10 µM [1]: 15%
- inhibition at 25 µM [1]: 52%

Compound: CC(C)C[C@H](NC(=O)c1c(-c2ccccc2)c2cc(-n3cccc3)ccc2n1Cc1ccccc1)C(=O)O [Example 4, N-{[1-benzyl-3-phenyl-5-(1H-pyrrol-1-yl)-1H-indol-2-yl]carbonyl}-L-leucine]
- inhibition at 10 µM [1]: 18%
- inhibition at 25 µM [1]: 90%

Compound: Cc1ccc(C)n1-c1ccc2c(c1)c(-c1ccccc1)c(C(=O)O)n2Cc1ccccc1 [Example 5, 1-benzyl-5-(2,5-dimethyl-1H-pyrrol-1-yl)-3-phenyl-1H-indole-2-carboxylic acid]
- inhibition at 10 µM [1]: 23%
- inhibition at 25 µM [1]: 83%

Compound: Cc1ccc(C)n1-c1ccc2c(c1)c(-c1ccccc1)c(C(=O)N[C@@H](CC(C)C)C(=O)O)n2Cc1ccccc1 [Example 6, N-{[1-benzyl-5-(2,5-dimethyl-1H-pyrrol-1-yl)-3-phenyl-1H-indol-2-yl]carbonyl}-L-leucine]
- inhibition at 10 µM [1]: 76%
- inhibition at 25 µM [1]: 79%
- IC50 (human PAI-1): 12.9 µM

Compound: O=C(O)c1c(-c2ccccc2)c2cc(-n3cccc3)ccc2n1Cc1ccc(-c2ccccc2)cc1 [Example 7, 1-(1,1′-biphenyl-4-ylmethyl)-3-phenyl-5-(1H-pyrrol-1-yl)-1H-indole-2-carboxylic acid]
- inhibition at 10 µM [1]: 56%
- inhibition at 25 µM [1]: 90%

Compound: O=C(O)c1c(-c2ccccc2)c2cc(-n3ccc4ccccc43)ccc2n1Cc1ccc(-c2ccccc2)cc1 [Example 8, 1′-(1,1′-biphenyl-4-ylmethyl)-3′-phenyl-1′H-1,5′-biindole-2′-carboxylic acid]
- inhibition at 10 µM [1]: 60%
- inhibition at 25 µM [1]: 79%

Compound: O=C(O)c1[nH]c2ccc(-n3cccc3)cc2c1-c1ccccc1 [Example 9, 3-phenyl-5-(1H-pyrrol-1-yl)-1H-indole-2-carboxylic acid]
- inhibition at 10 µM [1]: 19%
- inhibition at 25 µM [1]: 47%

Compound: CC(C)(C)c1ccc(-c2c(C(=O)O)n(Cc3ccccc3)c3ccc(-n4cccc4)cc23)cc1 [Example 10, 1-benzyl-3-(4-tert-butylphenyl)-5-(1H-pyrrol-1-yl)-1H-indole-2-carboxylic acid]
- inhibition at 10 µM [1]: 49%
- inhibition at 25 µM [1]: 90%

Compound: CC(C)(C)c1ccc(-c2c(C(=O)O)n(Cc3ccccc3)c3ccc(-n4ccc5ccccc54)cc23)cc1 [Example 11, 1′-benzyl-3′-(4-tert-butylphenyl)-1′H-1,5′-biindole-2′-carboxylic acid]
- inhibition at 10 µM [1]: 66%
- inhibition at 25 µM [1]: 99%

Compound: O=C(N[C@@H](Cc1ccccc1)C(=O)O)c1[nH]c2ccc(-n3cccc3)cc2c1-c1ccccc1 [Example 12, N-{[3-phenyl-5-(1H-pyrrol-1-yl)-1H-indol-2-yl]carbonyl}-L-phenylalanine]
- inhibition at 10 µM [1]: 39%
- inhibition at 25 µM [1]: 51%
